Measured values: PMC12731536, “Sc(III) Complexes of Pyclen Derivative Ligands as Probes for Hypoxia: Synthesis, Chemical Characterization, ^44Sc‐Radiolabeling, and Preclinical Assessment” (Chemistry (Weinheim an Der Bergstrasse, Germany), 2025)
Where two headings read alike, the source gives them in different places.

Assays:
[1] = parameters: method as in PMID 24838869; details: dissociation of [Sc(DOTA)]; cited from earlier work
[2] = cited from earlier work
[3] = Fluoride binding of [Sc(PC2AM^nBu)]^+ (ternary complex stability), 19F NMR titration; assay type: physicochemical; details: for log K ScLF: stability constant of the ternary fluoride complex, 19F NMR, pH = 5.2, I = 0.15 M NaCl, 25 °C; for K= [Sc(L)F]/[Sc(L)]*[F^-] / log K: titration point: complex 0.0050 M, pH 5.20, I = 0.15 M NaCl, 298 K
Text: Sc(III) is a typical “hard” cation, forming very stable complexes with fluoride anion.^[ [51], [52] ^] […] The formation of the ternary [Sc(PC2AM^nBu)(F)] complex can be followed by […], as two sets of signals (Δδ ∼ 20 Hz) indicate a slow exchange regime on the […] time scale (Figure S16). Measuring the intensities of the free and bound fluoride signals, the stability constant (Eqn. 6) of the [Sc(PC2AM^nBu)(F)] complex (Eqn. 5) can be calculated (Table S1).
(5) [Sc(PC2AM^nBu)]^++F^−⇌[Sc(PC2AM^nBu)(F)] (6) KScLF=ScPC2AM^nBuF/[ScPC2AM^nBu^+]F^−
Table S1. Summary of data used for the calculation of the stability constant, log K[Sc(PC2AM^nBu)(F)] by titration of 0.005M [Sc(PC2AM^nBu)]^+ parent complex with different amounts of F^- (0.005 - 0.01 M concentration range) followed by 376.4 MHz ^19F NMR (I = 0.15 M NaCl, c Sc(PC2AM^nBu) = 5 mM, pH=5.20, T= 298 K).

[4] = Fluoride exchange kinetics, 19F NMR selective magnetization transfer; assay type: physicochemical; details: complex 5 mM, cF = 10 mM, 14% uncertainty; for k obs ^AB (fluoride exchange, complex site A to free F^− site B): 298 K
Text: Considering ^18F‐labeling and PET application of the [Sc(L)(F)]‐type mixed complexes, one has to check the inertness of the mixed complex against F‐exchange:
(7) [Sc(PC2AM^nBu)F]+∗F^−⇌[Sc(PC2AM^nBu)∗F]+F^− where * is used to indicate typographically the exchanging anion.
The ^19F NMR signal of the mixed complex is somewhat broadened (ν ½ = 150 Hz) due to the relaxation effect of the quadrupole ^45Sc (I = 7/2) nuclei, while the free fluoride is narrow (ν ½ = 4.5 Hz), indicating the absence of chemical exchange on the T 2‐time scale (Figure S24). […] (site A) and free F^− (site B) with k obs ^AB value of 0.6 s^−1 (14% uncertainty), indicating remarkable inertness of the monodentate fluoride (Figure S25). Very recently, 3–4 orders of magnitude larger fluoride exchange rate constants have been published for two Y(III) complexes formed with open‐chain ligands, [Y(EGTA)(F)]^2− and [Y(OBETA)(H2O)(F)]^2−.^[ [56] ^] […] At the same time, the k obs value obtained for the [Sc(OPC2A)(F)] complex (k obs = 16.5 s^−1) is lower by an order of magnitude than that of [Yb(DTMA)(F)]^2+ [ [45] ^] which is likely to be rationalized by the more rigid environment around the M(III)‐F entity.
Figure S25. Selective magnetization transfer (MT) experiment (intensity vs. delay time) curves for [Sc(PC2AAM^nBu)(F)] (c[Sc(PC2AAMnBu)(F)] = 5 mM, cF = 10 mM, pH = 5.50, 298 K). The symbols show the measured intensities: red triangle [Sc(PC2AAM^nBu)(F)] (site A); blue square, free F^- (site B), the curves represent the fitted data (k^obsBA = 1.2 s^-1 (14% uncertainty), k^obsAB = 0.60 s^-1 (14% uncertainty), T1,A= 0.211 s; T1,B = 1.28 s (fixed)).

## O=C(O)CN1CCN(CC(=O)O)CCN(CC(=O)O)CCN(CC(=O)O)CC1 [DOTA]
[1]
  k 0 (spontaneous dissociation): 6e-06 s⁻¹
  k 1 (acid‐assisted dissociation): 4.3e-06 M⁻¹ s⁻¹

## F.O=C([O-])CN(CCN(CC(=O)[O-])CC(=O)O)CC(=O)[O-].[Al+3] [[Al(EDTA)(F)]^2−]
[2]; estimate, no magnetization effect in MT experiment
  k obs (fluoride exchange): greater than or equal to 0.2 s^−1

## O=C([O-])CN1CCOCCN(CC(=O)[O-])Cc2cccc(n2)C1.[F-].[Sc+3] [[Sc(OPC2A)(F)]]
[2]; literature value
  k obs (fluoride exchange): 16.5 s⁻¹

## CCCCNC(=O)CN1CCN(CC(=O)[O-])Cc2cccc(n2)CN(CC(=O)[O-])CC1.[F-].[Sc+3] [[Sc(PC2AM^nBu)(F)]]
[3]
  log K ScLF: 2.5(2)
[3]; listed as [Sc(PC2AMnBu)(F)]
  log K ScLF: 2.5
[3]; F^- 0.0050 M
  K= [Sc(L)F]/[Sc(L)]*[F^-]: 356.65
  log K: 2.55
[3]; F^- 0.0060 M
  K= [Sc(L)F]/[Sc(L)]*[F^-]: 508.89
  log K: 2.71
[3]; F^- 0.0070 M
  K= [Sc(L)F]/[Sc(L)]*[F^-]: 342.86
  log K: 2.54
[3]; F^- 0.0080 M
  K= [Sc(L)F]/[Sc(L)]*[F^-]: 222.09
  log K: 2.35
[3]; F^- 0.0100 M
  K= [Sc(L)F]/[Sc(L)]*[F^-]: 150.79
  log K: 2.18
[4]
  k obs ^AB (fluoride exchange, complex site A to free F^− site B): 0.6 s⁻¹
[4]; listed as [Sc(PC2AAM^nBu)(F)]
  k obs ^AB (fluoride exchange, complex site A to free F^− site B): 0.60 s⁻¹
[4]; pH = 5.50, 298 K
  k^obsBA (fluoride exchange, free F^- site B to complex site A): 1.2 s⁻¹

## CNC(=O)CN1CCN(CC(=O)NC)CCN(CC(=O)NC)CCN(CC(=O)NC)CC1.[F-].[Yb+3] [[Yb(DTMA)(F)]^2+]
[2]; literature value
  k obs (fluoride exchange): 216 s⁻¹
